Where two headings read alike, the source gives them in different places.
Key:
Test in all cases: Test A postemergence
Assay type in all cases: in vivo
[1] = tested on: barnyardgrass (Echinochloa crus-galli); conditions: Echinochloa crus-galli, post-emergence, 240 h; for pest or weed control at 125 g/ha: 125 g ai/ha; for pest or weed control at 500 g/ha: 500 g ai/ha; for pest or weed control at 31 g/ha: 31 g ai/ha, visual injury after approx. 10 d, 0 no effect, 100 complete control
Procedure, shortened: (§1)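 In a loam soil and sand blend, planted seeds got a preemergence directed soil spray, and young plants at the one- to two-leaf stage, 2–10 cm high, got a postemergence application; ~10 d greenhouse hold; injury rated visually, 0 = none, 100 = complete control.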

[2] = tested on: blackgrass (Alopecurus myosuroides); conditions: Alopecurus myosuroides, post-emergence, 240 h; for pest or weed control at 125 g/ha: 125 g ai/ha; for pest or weed control at 500 g/ha: 500 g ai/ha; for pest or weed control at 31 g/ha: 31 g ai/ha, visual injury after approx. 10 d, 0 no effect, 100 complete control
Procedure, shortened: as §1

[3] = tested on: giant foxtail (Setaria faberii); conditions: Setaria faberi, post-emergence, 240 h; for pest or weed control at 125 g/ha: 125 g ai/ha; for pest or weed control at 500 g/ha: 500 g ai/ha; for pest or weed control at 31 g/ha: 31 g ai/ha, visual injury after approx. 10 d, 0 no effect, 100 complete control
Procedure, shortened: as §1

[4] = tested on: ragweed (common ragweed, Ambrosia elatior); conditions: Ambrosia artemisiifolia, post-emergence, 240 h; for pest or weed control at 125 g/ha: 125 g ai/ha; for pest or weed control at 500 g/ha: 500 g ai/ha; for pest or weed control at 31 g/ha: 31 g ai/ha, visual injury after approx. 10 d, 0 no effect, 100 complete control
Procedure, shortened: as §1

[5] = tested on: ryegrass, Italian (Italian ryegrass, Lolium multiflorum); conditions: Lolium multiflorum, post-emergence, 240 h; for pest or weed control at 125 g/ha: 125 g ai/ha; for pest or weed control at 500 g/ha: 500 g ai/ha; for pest or weed control at 31 g/ha: 31 g ai/ha, visual injury after approx. 10 d, 0 no effect, 100 complete control
Procedure, shortened: as §1

[6] = tested on: wheat (Triticum aestivum); conditions: Triticum aestivum, post-emergence, 240 h; for plant injury at 125 g/ha: 125 g ai/ha, postemergence; for plant injury at 31 g/ha: 31 g ai/ha, visual injury after approx. 10 d, 0 to 100 scale, 0 no effect, 100 complete control
Procedure, shortened: as §1

[7] = postemergence, visual injury vs untreated controls after approx. 10 d, 0 = no effect, 100 = complete control, read-out: Barnyardgrass plant response rating (0 to 100 scale)
[8] = postemergence, visual injury vs untreated controls after approx. 10 d, 0 = no effect, 100 = complete control, read-out: Blackgrass plant response rating (0 to 100 scale)
[9] = postemergence, visual injury vs untreated controls after approx. 10 d, 0 = no effect, 100 = complete control, read-out: Foxtail, Giant plant response rating (0 to 100 scale)
[10] = postemergence, visual injury vs untreated controls after approx. 10 d, 0 = no effect, 100 = complete control, read-out: Ragweed plant response rating (0 to 100 scale)
[11] = postemergence, visual injury vs untreated controls after approx. 10 d, 0 = no effect, 100 = complete control, read-out: Ryegrass, Italian plant response rating (0 to 100 scale)
[12] = visual injury vs untreated controls after approx. 10 d, 0 = no effect, 100 = complete control, read-out: Wheat plant response rating (0 to 100 scale)
[13] = postemergence, visual injury rating after approximately 10 d, read-out: Barnyardgrass plant response rating (0 to 100 scale, 0 no effect, 100 complete control)
[14] = Postemergence, 0 to 100 scale, read-out: Plant response rating, Barnyardgrass
[15] = postemergence, visual injury rating after approximately 10 d, read-out: Blackgrass plant response rating (0 to 100 scale, 0 no effect, 100 complete control)
[16] = Postemergence, 0 to 100 scale, read-out: Plant response rating, Blackgrass
[17] = postemergence, visual injury rating after approximately 10 d, read-out: Foxtail, Giant plant response rating (0 to 100 scale, 0 no effect, 100 complete control)
[18] = Postemergence, 0 to 100 scale, read-out: Plant response rating, Foxtail, Giant
[19] = postemergence, visual injury rating after approximately 10 d, read-out: Ragweed plant response rating (0 to 100 scale, 0 no effect, 100 complete control)
[20] = Postemergence, 0 to 100 scale, read-out: Plant response rating, Ragweed
[21] = postemergence, visual injury rating after approximately 10 d, read-out: Ryegrass, Italian plant response rating (0 to 100 scale, 0 no effect, 100 complete control)
[22] = Postemergence, 0 to 100 scale, read-out: Plant response rating, Ryegrass, Italian
[23] = visual injury rating after approximately 10 d, read-out: Wheat plant response rating (0 to 100 scale, 0 no effect, 100 complete control)
[24] = Postemergence, read-out: Plant response rating, Wheat
[25] = postemergence, visual injury after approximately 10 d, 0 to 100 scale (0 no effect, 100 complete control), read-out: Plant response rating, Barnyardgrass
[26] = postemergence, visual injury after approximately 10 d, 0 to 100 scale (0 no effect, 100 complete control), read-out: Plant response rating, Blackgrass
[27] = postemergence, visual injury after approximately 10 d, 0 to 100 scale (0 no effect, 100 complete control), read-out: Plant response rating, Foxtail, Giant
[28] = postemergence, visual injury after approximately 10 d, 0 to 100 scale (0 no effect, 100 complete control), read-out: Plant response rating, Ragweed
[29] = postemergence, visual injury after approximately 10 d, 0 to 100 scale (0 no effect, 100 complete control), read-out: Plant response rating, Ryegrass, Italian
[30] = visual injury after approximately 10 d, 0 to 100 scale (0 no effect, 100 complete control), read-out: Plant response rating, Wheat

SMILES | pest or weed control at 125 g/ha [1, 13] | pest or weed control at 31 g/ha [1, 14] | pest or weed control at 125 g/ha [2, 15] | pest or weed control at 31 g/ha [2, 16] | pest or weed control at 125 g/ha [3, 17] | pest or weed control at 31 g/ha [3, 18] | pest or weed control at 125 g/ha [4, 19] | pest or weed control at 31 g/ha [4, 20] | pest or weed control at 125 g/ha [5, 21] | pest or weed control at 31 g/ha [5, 22] | plant injury at 125 g/ha [6, 23] | plant injury at 31 g/ha [6, 24] | further results
CCc1ccc([C@H]2CNC(=O)[C@@H]2C(=O)Nc2c(F)cccc2F)cc1 [Compound 1248] | – | – | – | – | – | – | – | – | – | – | – | – | pest or weed control at 125 g/ha [1, 7]: 0%; pest or weed control at 500 g/ha ([1]; Postemergence, visual injury, 0 to 100 scale (0 no effect, 100 complete control), approx. 10 d, read-out: Plant response rating, Barnyardgrass): 50%; pest or weed control at 125 g/ha [2, 8]: 0%; pest or weed control at 500 g/ha ([2]; Postemergence, visual injury, 0 to 100 scale (0 no effect, 100 complete control), approx. 10 d, read-out: Plant response rating, Blackgrass): 0%; pest or weed control at 125 g/ha [3, 9]: 0%; pest or weed control at 500 g/ha ([3]; Postemergence, visual injury, 0 to 100 scale (0 no effect, 100 complete control), approx. 10 d, read-out: Plant response rating, Foxtail, Giant): 20%; pest or weed control at 125 g/ha [4, 10]: 0%; pest or weed control at 500 g/ha ([4]; Postemergence, visual injury, 0 to 100 scale (0 no effect, 100 complete control), approx. 10 d, read-out: Plant response rating, Ragweed): 0%; pest or weed control at 125 g/ha [5, 11]: 0%; pest or weed control at 500 g/ha ([5]; Postemergence, visual injury, 0 to 100 scale (0 no effect, 100 complete control), approx. 10 d, read-out: Plant response rating, Ryegrass, Italian): 0%; plant injury at 125 g/ha [6, 12]: 0%; plant injury at 500 g/ha ([6]; Postemergence, 500 g ai/ha, visual injury, 0 to 100 scale (0 no effect, 100 complete control), approx. 10 d, read-out: Plant response rating, Wheat): 0%
CN1CC[C@H](c2cccc(OC(F)(F)F)c2)[C@@H](C(=O)Nc2ccc(F)c(F)c2F)C1=O [Compound 808] | 70% | 50% | 0% | 0% | 80% | 70% | 0% | 0% | 0% | 0% | 0% | 0% | –
CSc1ccccc1NC(=O)[C@H]1C(=O)N(C)C[C@@H]1c1ccc(F)cc1 [Compound 1236] | – | – | – | – | – | – | – | – | – | – | – | – | pest or weed control at 125 g/ha [1, 7]: 100%; pest or weed control at 500 g/ha ([1]; postemergence, 0 to 100 scale, 0 is no effect, 100 is complete control, read-out: Barnyardgrass plant response rating): 100%; pest or weed control at 125 g/ha [2, 8]: 30%; pest or weed control at 500 g/ha ([2]; postemergence, 0 to 100 scale, 0 is no effect, 100 is complete control, read-out: Blackgrass plant response rating): 30%; pest or weed control at 125 g/ha [3, 9]: 30%; pest or weed control at 500 g/ha ([3]; postemergence, 0 to 100 scale, 0 is no effect, 100 is complete control, read-out: Foxtail, Giant plant response rating): 90%; pest or weed control at 125 g/ha [4, 10]: 0%; pest or weed control at 500 g/ha ([4]; postemergence, 0 to 100 scale, 0 is no effect, 100 is complete control, read-out: Ragweed plant response rating): 40%; pest or weed control at 125 g/ha [5, 11]: 0%; pest or weed control at 500 g/ha ([5]; postemergence, 0 to 100 scale, 0 is no effect, 100 is complete control, read-out: Ryegrass, Italian plant response rating): 50%; plant injury at 125 g/ha [6, 12]: 0%
CN1C[C@H](c2cccc(C(F)(F)F)c2)[C@@H](C(=O)Nc2ccccc2C2CC2)C1=O [Compound 749] | – | – | – | – | – | – | – | – | – | – | – | – | pest or weed control at 125 g/ha [1, 25]: 0%; pest or weed control at 125 g/ha [2, 26]: 0%; pest or weed control at 125 g/ha [3, 27]: 0%; pest or weed control at 125 g/ha [4, 28]: 0%; pest or weed control at 125 g/ha [5, 29]: 0%; plant injury at 125 g/ha [6, 30]: 0%
CN1CC[C@H](c2ccc3c(c2)OC(F)(F)O3)[C@@H](C(=O)Nc2ccccc2C(F)(F)F)C1=O [Compound 811] | 40% | 0% | 0% | 0% | 60% | 0% | 0% | 0% | 0% | 0% | 0% | 0% | –
O=C1NC[C@H](c2csc3ccccc23)[C@H]1C(=O)Nc1ccccc1F [Compound 750] | – | – | – | – | – | – | – | – | – | – | – | – | pest or weed control at 125 g/ha [1, 25]: 70%; pest or weed control at 125 g/ha [2, 26]: 0%; pest or weed control at 125 g/ha [3, 27]: 20%; pest or weed control at 125 g/ha [4, 28]: 0%; pest or weed control at 125 g/ha [5, 29]: 0%; plant injury at 125 g/ha [6, 30]: 0%
CSc1ccccc1NC(=O)[C@H]1C(=O)N(C)CC[C@@H]1c1cccc(OC(F)(F)F)c1 [Compound 809] | 0% | 0% | 0% | 0% | 0% | 0% | 0% | 0% | 0% | 0% | 0% | 0% | –
